pEC50: −log10 of the molar value. Read-outs that look alike come from different tables or passages of the source.
Legend:
[1] = amide bond, 13-membered ring, DMF, 25.0 °C, 0.33 h
[2] = amide bond, 13-membered ring
[3] = biological target: T1, CFTR (Homo sapiens, UniProt P13569); assay: standard Ussing Chamber Assay for CFTR potentiator activity; assay type: cell-based; conditions: qualitative statement
Target sequence in this assay (P13569 whole entry, species assumed): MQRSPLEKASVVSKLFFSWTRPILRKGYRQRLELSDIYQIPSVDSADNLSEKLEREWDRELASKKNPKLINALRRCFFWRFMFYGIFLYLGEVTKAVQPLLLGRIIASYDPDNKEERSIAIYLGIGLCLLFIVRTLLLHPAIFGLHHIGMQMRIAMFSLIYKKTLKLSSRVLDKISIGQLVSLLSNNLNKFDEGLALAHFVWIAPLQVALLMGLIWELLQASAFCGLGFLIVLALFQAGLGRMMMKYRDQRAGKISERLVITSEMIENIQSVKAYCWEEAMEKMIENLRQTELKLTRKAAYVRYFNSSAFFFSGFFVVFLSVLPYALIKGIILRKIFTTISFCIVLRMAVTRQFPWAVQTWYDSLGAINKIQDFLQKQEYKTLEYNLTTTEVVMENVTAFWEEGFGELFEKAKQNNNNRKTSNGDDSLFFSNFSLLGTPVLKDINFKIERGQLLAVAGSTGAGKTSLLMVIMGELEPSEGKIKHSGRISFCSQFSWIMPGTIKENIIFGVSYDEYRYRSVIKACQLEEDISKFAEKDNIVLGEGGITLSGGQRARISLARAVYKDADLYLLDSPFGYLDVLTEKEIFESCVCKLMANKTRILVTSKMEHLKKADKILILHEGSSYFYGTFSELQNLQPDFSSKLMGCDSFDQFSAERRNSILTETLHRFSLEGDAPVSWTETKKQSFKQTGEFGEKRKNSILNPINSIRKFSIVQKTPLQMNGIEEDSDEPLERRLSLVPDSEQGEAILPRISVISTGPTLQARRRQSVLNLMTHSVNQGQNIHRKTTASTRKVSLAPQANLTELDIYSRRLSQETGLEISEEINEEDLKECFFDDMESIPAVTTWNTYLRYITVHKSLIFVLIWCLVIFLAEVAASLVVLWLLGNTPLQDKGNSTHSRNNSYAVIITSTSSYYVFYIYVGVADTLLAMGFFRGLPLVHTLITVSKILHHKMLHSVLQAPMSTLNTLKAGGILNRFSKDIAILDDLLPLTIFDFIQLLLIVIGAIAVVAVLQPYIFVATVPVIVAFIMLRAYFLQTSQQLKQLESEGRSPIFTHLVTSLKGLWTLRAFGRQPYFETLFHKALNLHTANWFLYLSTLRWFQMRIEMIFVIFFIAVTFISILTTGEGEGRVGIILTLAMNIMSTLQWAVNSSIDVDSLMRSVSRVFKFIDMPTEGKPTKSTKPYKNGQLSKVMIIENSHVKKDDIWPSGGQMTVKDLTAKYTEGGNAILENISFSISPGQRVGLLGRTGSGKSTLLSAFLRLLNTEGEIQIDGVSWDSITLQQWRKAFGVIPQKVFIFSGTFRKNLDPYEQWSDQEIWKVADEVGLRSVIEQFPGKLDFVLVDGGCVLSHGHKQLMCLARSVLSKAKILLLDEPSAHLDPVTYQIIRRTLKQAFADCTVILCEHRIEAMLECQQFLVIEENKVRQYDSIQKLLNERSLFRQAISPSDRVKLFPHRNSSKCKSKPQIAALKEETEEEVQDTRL

[4] = biological target: T1, CFTR; assay: Membrane potential dye, Enteroid Assay A; assay type: cell-based; conditions: Table 6; for Ent. A Max Activity: chloride transport as % of triple combination control (Enteroid Assay A); for pEC50: human enteroid cells, 18-24 hours, acute 10 μM forskolin and 300 nM ivacaftor, read-out: Ent. A EC50
How it was run: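 Human intestinal enteroids incubated 18-24 h at 37 °C with test compound, then loaded with 20 μM methyl oxonol (with CaCC inhibitors). Chloride transport triggered in chloride-free buffer with 10 μM forskolin, 100 μM IBMX, 300 nM Compound III; fluorescence read 15 min, expressed as % of a triple-combination corrector/potentiator control.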
Target sequence in this assay (P13569 with tags, fused parts or gaps DEL508-508): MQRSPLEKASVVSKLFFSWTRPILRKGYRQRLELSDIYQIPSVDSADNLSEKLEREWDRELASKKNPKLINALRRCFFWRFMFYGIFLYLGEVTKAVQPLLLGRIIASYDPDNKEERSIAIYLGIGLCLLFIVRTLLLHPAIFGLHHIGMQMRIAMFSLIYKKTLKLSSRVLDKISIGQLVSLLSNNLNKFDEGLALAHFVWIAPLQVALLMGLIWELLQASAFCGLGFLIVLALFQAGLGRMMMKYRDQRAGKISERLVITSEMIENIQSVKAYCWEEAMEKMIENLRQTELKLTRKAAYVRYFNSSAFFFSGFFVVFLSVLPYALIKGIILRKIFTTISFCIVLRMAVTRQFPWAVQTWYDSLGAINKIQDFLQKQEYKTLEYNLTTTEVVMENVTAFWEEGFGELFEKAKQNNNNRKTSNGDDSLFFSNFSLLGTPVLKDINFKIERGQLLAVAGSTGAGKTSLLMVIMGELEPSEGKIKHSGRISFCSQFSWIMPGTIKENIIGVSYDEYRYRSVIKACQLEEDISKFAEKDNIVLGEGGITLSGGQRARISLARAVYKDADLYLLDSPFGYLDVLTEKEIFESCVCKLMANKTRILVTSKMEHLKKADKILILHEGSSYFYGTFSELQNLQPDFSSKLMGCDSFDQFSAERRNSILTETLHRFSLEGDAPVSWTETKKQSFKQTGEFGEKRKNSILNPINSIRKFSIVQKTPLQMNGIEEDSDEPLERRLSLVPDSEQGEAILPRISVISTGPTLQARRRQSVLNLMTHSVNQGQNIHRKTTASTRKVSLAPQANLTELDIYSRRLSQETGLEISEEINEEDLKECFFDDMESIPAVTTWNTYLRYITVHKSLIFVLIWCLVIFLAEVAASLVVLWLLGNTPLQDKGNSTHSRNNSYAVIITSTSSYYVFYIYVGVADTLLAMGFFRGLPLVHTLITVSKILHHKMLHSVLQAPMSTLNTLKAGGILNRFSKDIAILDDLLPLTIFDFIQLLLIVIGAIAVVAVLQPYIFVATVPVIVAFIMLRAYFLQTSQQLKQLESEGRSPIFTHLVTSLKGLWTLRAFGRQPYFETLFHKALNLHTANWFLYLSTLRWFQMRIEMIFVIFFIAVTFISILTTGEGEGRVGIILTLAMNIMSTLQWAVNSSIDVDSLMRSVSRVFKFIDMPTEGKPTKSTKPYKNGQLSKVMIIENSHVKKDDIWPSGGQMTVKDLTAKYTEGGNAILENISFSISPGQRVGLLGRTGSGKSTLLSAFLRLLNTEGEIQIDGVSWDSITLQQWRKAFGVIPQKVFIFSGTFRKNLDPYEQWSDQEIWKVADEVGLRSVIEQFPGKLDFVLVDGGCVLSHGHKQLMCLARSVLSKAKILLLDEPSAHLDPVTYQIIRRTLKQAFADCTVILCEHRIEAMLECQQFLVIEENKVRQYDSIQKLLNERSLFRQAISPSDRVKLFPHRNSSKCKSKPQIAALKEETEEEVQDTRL

[5] = biological target: T2, CFTR (Homo sapiens, UniProt P13569, DEL508-508); assay: HBE assay: Ussing chamber assay of CFTR-mediated short-circuit currents; assay type: cell-based; conditions: for pEC50: read-out: HBE EC50
T2 construct: endogenous in cells; host or cells: primary human bronchial epithelial cells from CF subjects (F508del/MF-HBE), differentiated at air-liquid interface
T2 sequence (P13569 with tags, fused parts or gaps DEL508-508): as above
How it was run: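 CFTR-mediated Isc (μA/cm²) equals the peak response to apical 20 μM forskolin minus the residual after a 20 μM each BPO/GlyH-101/CFTR inhibitor 172 cocktail, recorded in Ussing chambers at Vhold 0 mV, 37 °C, pH 7.4, with 30 μM apical amiloride. Cells were F508del/MF HBE cultures preincubated 18-24 h with corrector (concentration range or 10 μM) plus 1 μM ivacaftor in 20% human serum.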

[6] = biological target: T2, CFTR; assay: HBE2 assay: Ussing chamber assay of CFTR-mediated short-circuit currents; assay type: cell-based; conditions: F508del/MF-HBE cells, with 44 nM potentiator, 18-24 hours, 20% human serum
How it was run: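 F508del/MF-HBE cultured >14 days at air-liquid interface, mounted in Ussing chambers; transepithelial short-circuit current recorded under voltage clamp (Vhold=0 mV) at 37 °C. CFTR-mediated ISC (μA/cm^2) taken as peak forskolin response relative to steady-state current after inhibition; corrector activity assessed this way.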

[7] = HBE assay, read-out: HBE Max activity (%)

CCOC(=O)CCCCN1C(=O)c2cccc(n2)S(=O)(=O)Nc2nc(cc(-c3c(C)cccc3C)n2)OC[C@H]1CC(C)(C)C showed a ring closure, crude yield ([1]; from CCOC(=O)CCCCN[C@@H](COc1cc(-c2c(C)cccc2C)nc(NS(=O)(=O)c2cccc(C(=O)O)n2)n1)CC(C)(C)C, HATU/DIEA, 26.1 mM) of 100%.
For COCN1c2nc(cc(-c3c(C)cccc3C)n2)OC[C@@H](CC(C)C)NC(=O)c2cccc(c2)S1(=O)=O, the ring closure, crude yield ([1]; from COCN(c1nc(OC[C@H](N)CC(C)C)cc(-c2c(C)cccc2C)n1)S(=O)(=O)c1cccc(C(=O)O)c1, HATU/Et3N, 106.0 mM) was 100%.
With Cc1cccc(C)c1-c1cc2nc(n1)NS(=O)(=O)c1cccc(c1)C(=O)N(CCC1(C(F)(F)F)CC1)[C@@H]1CN(C(=O)OC(C)(C)C)C[C@H]1O2 the ring closure, isolated yield ([2]; from Cc1cccc(C)c1-c1cc(O[C@@H]2CN(C(=O)OC(C)(C)C)C[C@H]2NCCC2(C(F)(F)F)CC2)nc(NS(=O)(=O)c2cccc(C(=O)O)c2)n1, COMU/DIEA, DMF, 10.6 mM, 72.0 h) was 92%.
In the case of C[C@@H]1CCCCC[C@](O)(C(F)(F)F)C2=NN=C(O2)c2nc(c(C(F)(F)F)cc2N)O1 [(6R,12R)-17-amino-12-methyl-6,15-bis(trifluoromethyl)-13,19-dioxa-3,4,18-triazatricyclo[12.3.1.12,5]nonadeca-1(18),2,4,14,16-pentaen-6-ol], the CFTR modulatory activity [3] was “confirmed”.
With Cc1cccc(C)c1-c1cc2nc(n1)NS(=O)(=O)c1cccc(c1)C(=O)N(C)CC(c1ccc(Br)cc1)O2 (centres unmarked) [Compound 8, 10-(4-Bromophenyl)-6-(2,6-dimethylphenyl)-12-methyl-2,2-dioxo-9-oxa-2λ^6-thia-3,5,12,19-tetrazatricyclo[12.3.1.14,8]nonadeca-1(18),4(19),5,7,14,16-hexaen-13-one] the ring closure, isolated yield ([2]; from CNCC(Oc1cc(-c2c(C)cccc2C)nc(NS(=O)(=O)c2cccc(C(=O)O)c2)n1)c1ccc(Br)cc1, HATU/DIEA, DMF, 29.7 mM, 25.0 °C, 2.0 h, 2 steps) was 61%, the “Ent. A Max Activity” value [4] was “+++ (+++ is >60%)” and the pEC50 [4] was greater than 6.00.
For Cc1cccc(C)c1-c1cc2nc(n1)NS(=O)(=O)c1cccc(c1)C(=O)N(C)CC(CNC(=O)OC(C)(C)C)O2 (centres unmarked) [Compound 97, tert-Butyl N-[[6-(2,6-dimethylphenyl)-12-methyl-2,2,13-trioxo-9-oxa-2λ^6-thia-3,5,12,19-tetrazatricyclo[12.3.1.14,8]nonadeca-1(18),4(19),5,7,14,16-hexaen-10-yl]methyl]carbamate], the ring closure, isolated yield ([2]; from CNCC(CNC(=O)OC(C)(C)C)Oc1cc(-c2c(C)cccc2C)nc(NS(=O)(=O)c2cccc(C(=O)O)c2)n1, HATU/DIEA, DMF, 37.9 mM, 25.0 °C, 0.25 h) was 42%, the “Ent. A Max Activity” value [4] was “++ (++ is 30-60%)” and the pEC50 [4] was 4.52 to 5.52.
In the case of Cc1cccc(C)c1-c1cc2nc(n1)NS(=O)(=O)c1cccc(c1)C(=O)N(C)CC(COCc1ccccc1)O2 (centres unmarked) [Compound 99, 10-(benzyloxymethyl)-6-(2,6-dimethylphenyl)-12-methyl-2,2-dioxo-9-oxa-2λ^6-thia-3,5,12,19-tetrazatricyclo[12.3.1.14,8]nonadeca-1(18),4(19),5,7,14,16-hexaen-13-one], the ring closure, isolated yield ([2]; from CNCC(COCc1ccccc1)Oc1cc(-c2c(C)cccc2C)nc(NS(=O)(=O)c2cccc(C(=O)O)c2)n1, HATU/DIEA, DMF, 33.6 mM, 25.0 °C, 0.25 h) was 58%, the “Ent. A Max Activity” value [4] was “++ (++ is 30-60%)” and the pEC50 [4] was 5.52 to 6.00.
With Cc1cccc(C)c1-c1cc2nc(n1)NS(=O)(=O)c1cccc(c1)C(=O)N(Cc1ncc(N3CC(C)(C)C3)cn1)[C@H](CC(C)(C)C)CO2 [Compound 331] the ring closure, isolated yield ([2]; from Cc1cccc(C)c1-c1cc(OC[C@@H](CC(C)(C)C)NCc2ncc(N3CC(C)(C)C3)cn2)nc(NS(=O)(=O)c2cccc(C(=O)O)c2)n1, T3P/DIEA, MeCN, 34.5 mM, 0.0 °C, 2.5 h) was 53%, the pEC50 ([5]; Table 11) was greater than 6.00 and the Emax ([5]; Table 11, read-out: HBE Max Activity (%)) was greater than 60%.
Cc1cccc(C)c1-c1cc2nc(n1)NS(=O)(=O)c1cccc(c1)C(=O)N(Cc1ncc(OC(C)C)cn1)[C@H](CCC(C)(C)C)CO2 [Compound 1296, (11R)-11-(3,3-Dimethylbutyl)-6-(2,6-dimethylphenyl)-12-[(5-isopropoxypyrimidin-2-yl)methyl]-2,2-dioxo-9-oxa-2λ^6-thia-3,5,12,19-tetrazatricyclo[12.3.1.14,8]nonadeca-1(18),4(19),5,7,14,16-hexaen-13-one] gave a ring closure, isolated yield ([2]; from Cc1cccc(C)c1-c1cc(OC[C@@H](CCC(C)(C)C)NCc2ncc(OC(C)C)cn2)nc(NS(=O)(=O)c2cccc(C(=O)O)c2)n1, CDMT/NMM, DMF, 29.6 mM, 21.0 h) of 60%, a pEC50 ([5]; HBE assay) greater than 6.00 and an Emax [5, 7] greater than 60%. For the same molecule, the “HBE2 Activity at 3 μM (%)” value [6] was “+++ (+++ is >60+)”.
Cc1cccc(C)c1-c1cc2nc(n1)NS(=O)(=O)c1cccc(c1)C(=O)N(Cc1ncc(OC(C)C)cn1)[C@H](CC1CCC1)CO2 [Compound 1297, (11R)-11-(Cyclobutylmethyl)-6-(2,6-dimethylphenyl)-12-[(5-isopropoxypyrimidin-2-yl)methyl]-2,2-dioxo-9-oxa-2λ^6-thia-3,5,12,19-tetrazatricyclo[12.3.1.14,8]nonadeca-1(18),4(19),5,7,14,16-hexaen-13-one] gave a ring closure, isolated yield ([2]; from Cc1cccc(C)c1-c1cc(OC[C@@H](CC2CCC2)NCc2ncc(OC(C)C)cn2)nc(NS(=O)(=O)c2cccc(C(=O)O)c2)n1, CDMT/NMM, DMF, 30.4 mM, 15.0 h) of 58%, a pEC50 ([5]; HBE assay) greater than 6.00 and an Emax [5, 7] greater than 60%. The “HBE2 Activity at 3 μM (%)” value [6] was “+++ (+++ is >60+)”, the pEC50 [6] was greater than 6.00 and the Emax ([6]; read-out: HBE2 Max activity (%)) was greater than 60%.

Reference: patent publication US20240150377A1, “MODULATORS OF CYSTIC FIBROSIS TRANSMEMBRANE CONDUCTANCE REGULATOR” (VERTEX PHARMACEUTICALS INCORPORATED, priority 2020, published 2024)
